Assay results from patent US9175024B2, “Platinum compound having amino or alkylamino-containing succinic acid derivatives as leaving group, preparation method thereof, and use thereof” (BEIJING FSWELCOME TECHNOLOGY DEVELOPMENT CO., LTD., priority 2011, dated 2015).
Where “and” joins values, the source holds several entries; their conditions need not be identical. Identical values can stand only once.

Columns and labels:
[1] = system: Pulmonary epithelial cell BEAS-2B; experiment: MTT cytotoxicity, pulmonary epithelial cell BEAS-2B; format: cell-based; settings: n = 6, Pulmonary epithelial cell BEAS-2B
Procedure: (§1) Several kinds of tumor cells in exponential growth phase were prepared into single cell suspension, inoculated on 96 pore plat at the density of 4×10^4/hole, cultivated for 24 hours to enable to adhere to wall with 1640 culture medium containing 10% fetal calf serum (complete medium) at 37° C.; the final culture volume was 100 μl. Cell morphology was observed after culture for 24 hours.

Lewis lung cancer = experiment: MTT cytotoxicity, Lewis lung cancer; format: cell-based; settings: n = 6, Lewis lung cancer
Procedure: as §1

Lung cancer A549 = experiment: MTT cytotoxicity, lung cancer A549; format: cell-based; settings: n = 6, Lung cancer A549
Procedure: as §1

Esophagus cancer ECA109 = experiment: MTT cytotoxicity, esophagus cancer ECA109; format: cell-based; settings: n = 6, Esophagus cancer ECA109
Procedure: as §1

[2] = system: Breast cancer MCF-7 Cisplatin resistance strain; experiment: MTT cytotoxicity, breast cancer MCF-7 cisplatin resistance strain; format: cell-based; settings: n = 6, Breast cancer MCF-7 Cisplatin resistance strain
Procedure: as §1

Testis cell ST = experiment: MTT cytotoxicity, testis cell ST; format: cell-based; settings: n = 6, Testis cell ST
Procedure: as §1

colon cancer SW480 [3] = experiment: In vivo antitumor activity, colon cancer SW480 in nude mice; settings: SW480 in male nude mice, once a week, 4 times, tumor weighed after 4 weeks
Source text: The calculation formula of tumor inhabitation rate is: […]

breast cancer MCF-7 [4] = experiment: In vivo antitumor activity, breast cancer MCF-7 in nude mice; settings: MCF-7 in female nude mice, once a week, 4 times, tumor weighed 4 weeks later
normal mice = experiment: Acute toxic effect of platinum complex on normal mice (LD50, single intravenous administration); format: in vivo, Kunming mice; settings: single intravenous administration in 5% glucose solution, 14 days observation, Bliss method
Procedure: (§2) Kunming mice at 4˜6 weeks old and at the weight of 18˜22 g were taken, 50% male and 50% female. Embodiment platinum compound was dissolved with 5% glucose solution. […] Mortality and toxicity were observed after administration, totally observing 14 days, LD50 value was calculated with Bliss method according to mortality.

Colon cancer SW480 [5] = experiment: MTT cytotoxicity, colon cancer SW480; format: cell-based; settings: n = 6, Colon cancer SW480
Procedure: as §1

Breast cancer MCF-7 [6] = experiment: MTT cytotoxicity, breast cancer MCF-7; format: cell-based; settings: n = 6, Breast cancer MCF-7
Procedure: as §1

Lung cancer H292 = experiment: MTT cytotoxicity, lung cancer H292; format: cell-based; settings: n = 6, Lung cancer H292
Procedure: as §1

Gastric cancer MGC803 = experiment: MTT cytotoxicity, gastric cancer MGC803; format: cell-based; settings: n = 6, Gastric cancer MGC803
Procedure: as §1

[7] = Solubility in water of the embodiment and contrast compounds
[8] = Acute toxic effect of platinum complex on normal mice (LD50, single intravenous administration); format: in vivo, Kunming mice; settings: both sexes, Kunming, mouse, in vivo; single intravenous administration in 5% glucose solution, 14 days observation, Bliss method
Procedure: as §2

physchem = settings: water

Compound | IC50 [1] | IC50 (Lewis lung cancer) | LD50 value (normal mice) | IC50 (Colon cancer SW480 [5]) | IC50 (Lung cancer H292) | LD50 at 14 days [8] | solubility (physchem) | also measured
NC(CC(=O)[O-])C(=O)[O-].NC1CCCCC1N.[Pt+2] (racemic) [ADP, [DL-2-amino-succinato].[trans-hexamethylenediamine]platinum (II), reference compound] | 107 µM | 162 µM | 0.332 mmol/kg | 98 µM | 61 µM |  |  | IC50 (Lung cancer A549): 145 µM; IC50 (Esophagus cancer ECA109): 98 µM and 163 µM; IC50 [2]: 156 µM; IC50 (Testis cell ST): 187 µM; Tumor inhibition rate (x ± SD) (colon cancer SW480 [3]; 30 mg (platinum)/kg): 45.3 ± 11.21%; Tumor inhibition rate (x ± SD) (breast cancer MCF-7 [4]; 30 mg (platinum)/kg): 68.3 ± 10.27 9%; IC50 (Breast cancer MCF-7 [6]): 73 µM; IC50 (Gastric cancer MGC803): 160 µM
CCN(CC)CCC(CC(=O)[O-])C(=O)[O-].NC1CCCCC1N.[Pt+2] (racemic) [Compound 10, [2-(2-diethyl amino ethyl)-succinato].[Cis-(1,2-trans-cyclohexyldiamine)]platinum (II)] | 25 µM | 28 µM | 0.595 mmol/kg | 5 µM | 24 µM |  |  | Tumor inhibition rate (x ± SD) (colon cancer SW480 [3]; 10 mg (platinum)/kg): 55.1 ± 9.07%
NC1CCCCC1N.O=C([O-])CC(CCCN1CCCCC1)C(=O)[O-].[Pt+2] (racemic) [Compound 13, [2-(3-(1-piperidyl)propyl)-succinato].[Cis-(1,2-trans-cyclohexyldiamine)]platinum (II)] | 12 µM | 32 µM | 0.542 mmol/kg | 95 µM | 57 µM |  |  | Tumor inhibition rate (x ± SD) (colon cancer SW480 [3]; 10 mg (platinum)/kg): 56.3 ± 6.81%
CCN(CC)CCCC(CC(=O)[O-])C(=O)[O-].NC1CCCC1N.[Pt+2] (racemic) [Compound 15, [2-(3-diethylamino propyl)-succinato].[Cis-(1,2-trans-cyclopentyldiamine)]platinum (II)] | 15 µM | 51 µM | 0.528 mmol/kg | 32 µM | 145 µM |  |  | Tumor inhibition rate (x ± SD) (breast cancer MCF-7 [4]; 10 mg (platinum)/kg): 73.5 ± 12.31 9%; solubility [7]: 151 mg/mL
NCCC(CC(=O)[O-])C(=O)[O-].N[C@@H]1CCCC[C@H]1N.[Pt+2] (relative stereo) [Compound 9, [2-(2-aminoethyl)-succinato].[Cis-(1,2-trans-cyclohexyldiamine)]platinum (II)] | 17 µM | 84 µM | 0.429 mmol/kg | 62 µM | 26 µM |  |  | Tumor inhibition rate (x ± SD) (colon cancer SW480 [3]; 10 mg (platinum)/kg): 44.8 ± 10.8%
CNCCC1CC(=O)[O][Pt]([NH2])([NH2])[O]C1=O (stereo not drawn) [Compound 1, [2-(2-methylaminoethyl)-succinato].[Cis-diamine]platinum (II)] |  |  |  |  |  | 523 µmol/kg | 208 mg/mL | 
CN(C)CCC1CC(=O)[O][Pt]([NH2])([NH2])[O]C1=O (stereo not drawn) [Compound 2, [2-(2-dimethylaminoethyl)-succinato].[Cis-diamine]platinum (II)] |  |  |  |  |  | 511 µmol/kg | 176 mg/mL | 
CN(C)CCCC1CC(=O)[O][Pt]([NH2])([NH2])[O]C1=O (stereo not drawn) [Compound 3, [2-(3-dimethylamino propyl)-succinato].[Cis-diamine]platinum (II)] |  |  |  |  |  | 521 µmol/kg | 150 mg/mL | 
NCCCC1CC(=O)[O][Pt]([NH2])([NH2])[O]C1=O (stereo not drawn) [Compound 4, [2-(3-amino propyl)-succinato].[Cis-diamine]platinum (II)] |  |  |  |  |  | 556 µmol/kg | 155 mg/mL | 
CCN(CC)CCC1CC(=O)[O][Pt]([NH2])([NH2])[O]C1=O (stereo not drawn) [Compound 5, [2-(2-diethylaminoethyl)-succinato].[Cis-diamine]platinum (II)] |  |  |  |  |  | 652 µmol/kg | 166 mg/mL | 
CCCN(CCC)CCCC1CC(=O)[O][Pt]([NH2])([NH2])[O]C1=O (stereo not drawn) [Compound 6, [2-(3-di-n-propylamino propyl)-succinato].[Cis-diamine]platinum (II)] |  |  |  |  |  | 449 µmol/kg | 130 mg/mL | 
[NH2][Pt]1([NH2])[O]C(=O)CC(CCCN2CCCCC2)C(=O)[O]1 (stereo not drawn) [Compound 7, [2-(3-(1-piperidyl)-propyl)-succinato].[Cis-diamine]platinum (II)] |  |  |  |  |  | 623 µmol/kg | 139 mg/mL | 
[NH2][Pt]1([NH2])[O]C(=O)CC(CCCN2CCCC2)C(=O)[O]1 (stereo not drawn) [Compound 8, [2-(3-(1-pyrrolidyl)-propyl)-succinato].[Cis-diamine]platinum (II)] |  |  |  |  |  | 605 µmol/kg | 135 mg/mL | 
CN(C)CCCC1CC(=O)[O][Pt]2([NH]C3CCCCC3[NH]2)[O]C1=O (stereo not drawn) [Compound 11, [2-(3-dimethylamino propyl)-succinato].[Cis-(1,2-trans-cyclohexyldiamine)]platinum (II)] | 45 µM | 51 µM | 0.571 mmol/kg | 22 µM | 13 µM |  |  | Tumor inhibition rate (x ± SD) (colon cancer SW480 [3]; 10 mg (platinum)/kg): 46.3 ± 9.88%
CCNCCC1CC(=O)[O][Pt]2([NH]C3CCCCC3[NH]2)[O]C1=O (stereo not drawn) [Compound 12, [2-(2-ethylamino ethyl)-succinato].[Cis-(1,2-trans-cyclohexyldiamine)]platinum (II)] | 57 µM | 69 µM | 0.602 mmol/kg | 72 µM | 61 µM |  |  | Tumor inhibition rate (x ± SD) (colon cancer SW480 [3]; 10 mg (platinum)/kg): 46.8 ± 9.17%
CCCN(CCC)CCCC(CC(=O)[O-])C(=O)[O-].N[C@@H]1CCCC[C@H]1N.[Pt+2] (stereo not drawn) [Compound 14, [2-(3-di-n-propylamino propyl)-succinato].[Cis-(1,2-trans-cyclohexyldiamine)]platinum (II)] | 8 µM | 37 µM | 0.467 mmol/kg | 51 µM | 9 µM |  |  | Tumor inhibition rate (x ± SD) (breast cancer MCF-7 [4]; 10 mg (platinum)/kg): 70.1 ± 11.55 9%
CCN(CC)CCCC1CC(=O)[O][Pt]2([NH]C3CCC3[NH]2)[O]C1=O (stereo not drawn) [Compound 16, [2-(3-diethylamino propyl)-succinato].[Cis-(1,2-trans-cyclobutyldiamine)]platinum (II)] | 45 µM | 33 µM | 0.623 mmol/kg | 84 µM | 8 µM |  |  | Tumor inhibition rate (x ± SD) (breast cancer MCF-7 [4]; 10 mg (platinum)/kg): 70.4 ± 10.81 9%; solubility [7]: 186 mg/mL
CCN(CC)CCC(CC(=O)[O-])C(=O)[O-].NC1CCC(N)CC1.[Pt+2] (stereo not drawn) [Compound 25, [2-(2-diethylaminoethyl)-succinato].[Cis-1,4-cyclohexyldiamine]platinum (II)] |  |  | 0.459 mmol/kg |  | 106 µM |  |  | IC50 (Esophagus cancer ECA109): 116 µM; IC50 (Testis cell ST): 102 µM; Tumor inhibition rate (x ± SD) (breast cancer MCF-7 [4]; 10 mg (platinum)/kg): 66.9 ± 9.49 9%; solubility [7]: 125 mg/mL; IC50 (Gastric cancer MGC803): 96 µM
CCN(CC)CCC1CC(=O)[O][Pt]2([NH]CC3(CCOCC3)C[NH]2)[O]C1=O (stereo not drawn) [Compound 26, [2-(2-diethylaminoethyl)-succinato].[Cis-1,3-(2,2-(4-oxacyclohexyl))-propyldiamine]platinum (II)] |  |  | 0.526 mmol/kg |  | 47 µM |  |  | IC50 (Esophagus cancer ECA109): 32 µM; IC50 (Testis cell ST): 44 µM; Tumor inhibition rate (x ± SD) (breast cancer MCF-7 [4]; 10 mg (platinum)/kg): 76.4 ± 14.85 9%; solubility [7]: 165 mg/mL; IC50 (Gastric cancer MGC803): 35 µM
CCN(CC)CCCCC1CC(=O)[O][Pt]([NH2])([NH2])[O]C1=O (stereo not drawn) [Compound 27, [2-(4-diethylamino butyl)-succinato].[Cis-diamine]platinum (II) acetate] |  |  |  |  |  | 557 µmol/kg | 143 mg/mL | 
CCN(CC)CCCCC(CC(=O)[O-])C(=O)[O-].NCCN.[Pt+2] (stereo not drawn) [Compound 28, [2-(4-diethylamino butyl)-succinato].[Cis-1,2-ethylenediamine]platinum (II) toluenesulfonate] |  |  | 0.612 mmol/kg |  | 99 µM |  |  | IC50 (Esophagus cancer ECA109): 56 µM; IC50 (Testis cell ST): 138 µM; Tumor inhibition rate (x ± SD) (breast cancer MCF-7 [4]; 10 mg (platinum)/kg): 76.4 ± 9.78 9%; solubility [7]: 187 mg/mL; IC50 (Gastric cancer MGC803): 162 µM
CC(=O)NC(CC(=O)[O-])C(=O)[O-].NC1CCCCC1N.[Pt+2] (centres unmarked) [Contrast Embodiment 1, reference compound] | 433 µM | 545 µM | 0.092 mmol/kg | 615 µM | 253 µM and 353 µM and 365 µM |  |  | IC50 (Lung cancer A549): 436 µM; IC50 (Esophagus cancer ECA109): 467 µM; IC50 [2]: 425 µM; IC50 (Testis cell ST): 239 µM; IC50 (Breast cancer MCF-7 [6]): 632 µM; IC50 (Gastric cancer MGC803): 525 µM
